Experimental data from patent US12104201B2, “Engineered gyri-like mutein aptamers, and related methods” (CROSSLIFE TECHNOLOGIES INC., priority 2019, dated 2024).
Positions count from the first letter of the chain named. Numbers in names are those of the source.

Legend:
[1] = target: T1, C. tepidium CTR107 variant E133Q (SEQ ID NO:22) (Chlorobaculum tepidum, UniProt Q8KFZ1, E133Q); format: binding
T1 sequence (Q8KFZ1 with tags, fused parts or gaps E133Q): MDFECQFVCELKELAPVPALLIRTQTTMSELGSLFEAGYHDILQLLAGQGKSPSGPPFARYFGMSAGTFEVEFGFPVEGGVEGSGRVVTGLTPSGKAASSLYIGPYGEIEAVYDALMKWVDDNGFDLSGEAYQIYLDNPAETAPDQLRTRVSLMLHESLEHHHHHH

[2] = target: C. tepidium CTR107 variant E36R (SEQ ID NO:18) (Chlorobaculum tepidum, UniProt Q8KFZ1, E36R); format: binding; details: FAM
Chain of C. tepidium CTR107 variant E36R (SEQ ID NO:18) (Q8KFZ1 entry or part of it E36R): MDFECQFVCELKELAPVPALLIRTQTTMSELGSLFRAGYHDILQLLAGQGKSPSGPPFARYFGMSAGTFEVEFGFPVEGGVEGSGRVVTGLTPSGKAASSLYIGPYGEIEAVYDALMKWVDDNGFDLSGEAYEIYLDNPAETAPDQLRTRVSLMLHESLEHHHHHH

[3] = target: T2, C. tepidium CTR107 variant Y106W (SEQ ID NO:20) (Chlorobaculum tepidum, UniProt Q8KFZ1, Y106W); test: biochemical; format: binding
T2 sequence (Q8KFZ1 with tags, fused parts or gaps Y106W): T1 sequence (Q8KFZ1 with tags, fused parts or gaps E133Q) with Y106W, Q133E

[4] = target: C. tepidium CTR107 variant, highest affinity FAM-binding aptamer from phage display library (Chlorobaculum tepidum, UniProt Q8KFZ1); test: Fluorescence-binding assay, Kd by nonlinear regression fit to the Hill equation
[5] = target: T3, L. innocua LIN2189 variant E157A (SEQ ID NO:28) (Listeria innocua, UniProt Q929T5, E157A); format: binding; details: FAM
T3 construct: listing organism Escherichia coli is only the host
T3 sequence (Q929T5 entry or part of it E157A): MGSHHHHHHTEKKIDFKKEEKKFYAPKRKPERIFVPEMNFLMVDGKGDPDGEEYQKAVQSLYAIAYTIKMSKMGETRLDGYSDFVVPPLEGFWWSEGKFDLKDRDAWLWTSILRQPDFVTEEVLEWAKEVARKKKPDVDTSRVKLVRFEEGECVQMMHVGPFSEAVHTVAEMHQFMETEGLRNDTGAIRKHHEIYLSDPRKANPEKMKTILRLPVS

[6] = target: T4, CTR107 WT (C. tepidium Gyrl-like protein, wild type, SEQ ID NO:4) (Chlorobaculum tepidum, UniProt Q8KFZ1); test: biochemical; format: binding
T4 construct: begins […]
T4 sequence (Q8KFZ1 entry or part of it): as the sequence (Q8KFZ1 entry or part of it E36R) above, with R36E counted along it

[7] = target: C. tepidium CTR107 variant, weakest FAM-binding aptamer from phage display library (Chlorobaculum tepidum, UniProt Q8KFZ1); test: Fluorescence-binding assay, Kd by nonlinear regression fit to the Hill equation
[8] = target: T5, LIN2189 WT (L. innocua Gyrl-like protein, wild type, SEQ ID NO:6) (Listeria innocua, UniProt Q929T5); test: Fluorescence binding assay (enhancement/quenching of dye fluorescence); details: 1 μM FAM, saturating protein
T5 construct: recombinant, purified
T5 sequence (Q929T5 with tags, fused parts or gaps): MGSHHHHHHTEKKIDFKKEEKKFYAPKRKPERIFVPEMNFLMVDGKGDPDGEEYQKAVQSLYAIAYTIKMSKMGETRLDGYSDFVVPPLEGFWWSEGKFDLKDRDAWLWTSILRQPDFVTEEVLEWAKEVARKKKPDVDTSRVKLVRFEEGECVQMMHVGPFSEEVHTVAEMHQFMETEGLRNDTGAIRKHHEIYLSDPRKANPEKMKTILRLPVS
Method: (§1) Fluorescence Binding Assay
CTR107 when added at 10 μM induced a 10-fold increase in DFHBI fluorescence (FIG. 6A).
Malachite Green fluoresces in the far-red regions when stimulated by binding aptamers, therefore we monitored its fluorescence emission at 665-720 nm after exciting at 635 nm.
Thioflavin T is a benzothiazole dye that has also been used in many fluorescence applications. […] The Corn aptamer is able to bind to two Thioflavin T molecules at a homodimer interface formed by G-quadruplexes. We tested whether Gyrl-like proteins could function as fluorescence enhancement aptamers of Thioflavin T. Thioflavin T has excitation and emission maxima of […], respectively. We probed the fluorescence enhancing properties of SAV2435, CTR107 and LIN2189 variants on Thioflavin T (FIG. 8). […] All other variants display either a small 4-6 fold increase or no increase in Thioflavin T fluorescence.

[9] = target: T6, SAV2435 WT (S. aureus Gyrl-like protein, wild type, SEQ ID NO:2) (Staphylococcus aureus, UniProt A0A0H3K0Y5); format: binding
T6 construct: listing organism Escherichia coli is only the host

FAM antibody = test: Fluorescence-binding assay, Kd by nonlinear regression fit to the Hill equation
Description: as §1

[10] = target: S. aureus SAV2435 variant E135Q (SEQ ID NO:14) (Staphylococcus aureus, UniProt A0A0H3K0Y5, E135Q/V105W); format: binding
[11] = target: S. aureus SAV2435 variant Y137W (SEQ ID NO:16) (Staphylococcus aureus, UniProt A0A0H3K0Y5, V105W/Y137W); format: binding
[12] = target: S. aureus SAV2435 variant V105W (SEQ ID NO:10) (Staphylococcus aureus, UniProt A0A0H3K0Y5, V105W); format: binding
[13] = target: S. aureus SAV2435 variant N27W (SEQ ID NO:8) (Staphylococcus aureus, UniProt A0A0H3K0Y5); format: binding; details: Acridine Orange
[14] = target: S. aureus SAV2435 variant P106W (SEQ ID NO:12) (Staphylococcus aureus, UniProt A0A0H3K0Y5, P106W); format: binding
[15] = system: E. coli expressing LIN2189 DUB; test: In vivo drug-binding aptamer screening (ampicillin resistance); details: E. coli growth, OD600, 24 hrs
[16] = system: E. coli expressing CTR107 WT; test: as above; details: E. coli growth, OD600, 24 hrs
[17] = system: E. coli expressing SAV2435 WT; test: as above; details: E. coli growth, OD600, 24 hrs
[18] = system: bacterial growth; ampicillin pre-incubated with LIN2189 (LIN2189 DUB); test: Ex vivo drug-metabolizing aptamer screening (bacterial growth in ampicillin pre-incubated with protein)
[19] = system: C. tepidium CTR107 variant Y106W (SEQ ID NO:20); test: biochemical; format: binding; details: Oxazine 170
[20] = target: S. aureus SAV2435 variant N27W (SEQ ID NO:8) (Staphylococcus aureus, UniProt A0A0H3K0Y5, Q27W); format: binding; details: Oxazine 170
[21] = UV fluorescence quenching of Oxazine 170 and reversibility; details: UV light
[22] = Acridine Orange fluorescence assay; details: 500 nM Acridine Orange
[23] = Colorimetric conversion of Iodonitrotetrazolium to Formazan; details: 100 μM NADH; 500 μM Iodonitrotetrazolium; 5 minutes
[24] = UV fluorescence quenching of Daunorubicin; details: 5 μM daunorubicin; saturating protein
[25] = FAM fluorescence quenching assay; format: biochemical; details: 1 μM FAM, saturating protein
Description: The fluorescence enhancing or quenching properties of Gyrl-like proteins can be used as a tool for identifying aptamers for target organic compounds. Building on Examples 1-8 we designed a protocol for identifying aptamers that bind to fluorescent dyes 5(6)-Carboxyfluorescein (FAM) and 5-Carboxytetramethylrhodamine (TAMRA) (FIG. 4). Both dyes are similar in structure and fluorescence in the green and red regions, respectively. The binding of FAM and TAMRA by Gyrl-like variant aptamers will result in enhancement or quenching of fluorescence. The invention method starts with screening our 3-selected wildtype Gyrl-like proteins to determine which can alter the fluorescence of FAM in solution (FIG. 11A).

TAMRA-DNA = test: TAMRA-labeled DNA fluorescence quenching assay; details: 5 nM protein
[26] = 100 nM Oxazine 170, 100 nM protein
[27] = 500 nM Oxazine 170, saturating protein

Q: Which fluorescence quenching ([1]; FAM) does the source give for 5(6)-Carboxyfluorescein [FAM] here?
A: loss of quenching properties

Q: And the fluorescence quenching [2]?
A: loss of quenching properties

Q: What about the fluorescence quenching ([3]; FAM) of the same molecule?
A: loss of quenching properties

Q: And the “affinity relative to FAM antibody” value [4]?
A: 11 fold

Q: What about the “changes in fluorescence quenching compared to LIN2189 WT” value [5] of the same molecule?
A: no changes

Q: What about the decrease in fluorescence ([6]; 1 μM FAM, saturating protein) of the same molecule?
A: 6 fold

Q: What about the Kd [7] of the same molecule?
A: 3 nM

Q: And the decrease in fluorescence [8]?
A: 2 fold

Q: What about the effect on fluorescence ([9]; 1 μM FAM, saturating protein) of the same molecule?
A: no effect

Q: What about the Kd (FAM antibody) of the same molecule?
A: 8 nM

Q: Which results are given for CN(C)c1ccc2cc3ccc(N(C)C)cc3nc2c1 [Acridine Orange]?
A: increase in fluorescence intensity ([10]; 500 nM Acridine Orange): doubled; quenching effect on fluorescence ([11]; Acridine Orange): 2-3 fold; increase in fluorescence intensity ([1]; 500 nM Acridine Orange): doubled; increase in fluorescence intensity ([12]; 500 nM Acridine Orange): doubled; quenching effect on fluorescence ([3]; Acridine Orange): 2-3 fold; quenching effect on fluorescence [13]: 2-3 fold; increase in fluorescence intensity ([6]; 500 nM Acridine Orange): doubled; increase in fluorescence intensity ([14]; 500 nM Acridine Orange): doubled; quenching effect on fluorescence ([9]; Acridine Orange): 2-3 fold

Q: With CC1(C)S[C@@H]2[C@H](NC(=O)[C@H](N)c3ccccc3)C(=O)N2[C@H]1C(=O)O [Ampicillin] as the molecule, how does the “highest resistance at ampicillin concentration” value [15] read?
A: 100 µg/mL

Q: What about the “partial resistance up to ampicillin concentration” value [16] of the same molecule?
A: up to 100 μg/ml

Q: And the susceptibility to ampicillin [17]?
A: susceptible

Q: What about the “resistance up to ampicillin concentration” value [18] of the same molecule?
A: up to 500 μg/ml

Q: For CCN=c1cc2oc3cc(NCC)c(C)cc3nc-2c2ccccc12 [Oxazine 170], which reduction in fluorescence ([10]; Oxazine 170) is on record?
A: 303 fold

Q: What about the shut-off of fluorescence ([10]; Oxazine 170) of the same molecule?
A: ~100%

Q: What about the quenching effect ([11]; Oxazine 170) of the same molecule?
A: small decrease

Q: And the “fluorescence decrease at 100 nM protein” value [12, 26]?
A: 60%

Q: And the decrease in fluorescence ([3]; Oxazine 170)?
A: 47 fold

Q: And the “quenching potency relative to CTR107 WT” value [19]?
A: 5 fold

Q: And the reduction in fluorescence [20]?
A: 529 fold

Q: And the shut-off of fluorescence [20]?
A: ~100%

Q: What about the “reduction in fluorescence (red channel)” value [6, 27] of the same molecule?
A: 6 fold

Q: What about the “fluorescence decrease at 100 nM protein” value [14, 26] of the same molecule?
A: 60%

Q: What about the “protein concentration for 50% quenching” value ([9]; 100 nM Oxazine 170) of the same molecule?
A: 10 to 50 nM

Q: And the “fluorescence shut-off at 100 nM protein” value [9, 26]?
A: ~100%

Q: What about the “decrease in fluorescence (red channel)” value [9, 27] of the same molecule?
A: 303 fold

Q: And the shut-off of fluorescence [9, 27]?
A: ~100%

B1: SAV2435 Y137W: SAV2435 variant aptamer, SEQ ID NO:16 (protein, listed as Escherichia coli)
chain: MEYQLQQLASLTLVGIKETYENGRQAQQHIAGFWQRCYQEGVIADLQLKNNGDLAGILGLCIPELDGKMSYMIAVTGDNSADIAKYDVITLASSKYMVFEAQGAWPKAVQQKMEEVHHYIHQYQANTVKSAPFFELWQDGDTTSEKYITEIWMPVKGLEHHHHHH
Q: For B1, which “shut-off of Oxazine 170 red UV fluorescence” value [21] is on record?
A: non-quencher

B2: CTR107 E133Q: CTR107 variant aptamer, SEQ ID NO:22 (protein, listed as Escherichia coli)
chain: T1 sequence (Q8KFZ1 with tags, fused parts or gaps E133Q)
Q: For B2, which “Acridine Orange fluorescence increase” value [22] is on record?
A: doubled the fluorescence intensity

Q: What about the “color change of Iodonitrotetrazolium with NADH” value [23] of the same molecule?
A: faint red signal

B3: CTR107 Y106W: CTR107 variant aptamer, SEQ ID NO:20 (protein, listed as Escherichia coli)
chain: T1 sequence (Q8KFZ1 with tags, fused parts or gaps E133Q) with Y106W, Q133E
Q: With B3 as the molecule, how does the “UV fluorescence of Daunorubicin with protein” value [24] read?
A: complete shut off of fluorescence

B4: LIN2189 E157A: LIN2189 variant aptamer, SEQ ID NO:28 (protein, listed as Escherichia coli)
chain: T5 sequence (Q929T5 with tags, fused parts or gaps) with E165A
Q: Which “decrease in FAM fluorescence” value [25] does the source give for B4 here?
A: no changes in fluorescence quenching compared to LIN2189 WT

Q: What about the “effect on 100 nM TAMRA-DNA fluorescence” value (TAMRA-DNA) of the same molecule?
A: no effects on TAMRA fluorescence
